Reference: ChEMBL document CHEMBL1157886, “Potent dihydroquinolinone dopamine D2 partial agonist/serotonin reuptake inhibitors for the treatment of schizophrenia” (Bioorg Med Chem Lett, 2010)

Experiments:
[1] = molecular target: Sodium-dependent serotonin transporter (Homo sapiens, UniProt P31645)
[2] = molecular target: T1, D(2) dopamine receptor (Homo sapiens, UniProt P14416); assay: Ratio of compound to quinpirole partial agonist activity at human dopamine D2 receptor; format: functional
[3] = molecular target: T2, Adrenergic receptor alpha-1 (Homo sapiens, UniProt P35348+P25100+P35368); assay: Binding affinity to human alpha1 adrenergic receptor by radioligand displacement assay
T2 sequence (P35348 whole entry): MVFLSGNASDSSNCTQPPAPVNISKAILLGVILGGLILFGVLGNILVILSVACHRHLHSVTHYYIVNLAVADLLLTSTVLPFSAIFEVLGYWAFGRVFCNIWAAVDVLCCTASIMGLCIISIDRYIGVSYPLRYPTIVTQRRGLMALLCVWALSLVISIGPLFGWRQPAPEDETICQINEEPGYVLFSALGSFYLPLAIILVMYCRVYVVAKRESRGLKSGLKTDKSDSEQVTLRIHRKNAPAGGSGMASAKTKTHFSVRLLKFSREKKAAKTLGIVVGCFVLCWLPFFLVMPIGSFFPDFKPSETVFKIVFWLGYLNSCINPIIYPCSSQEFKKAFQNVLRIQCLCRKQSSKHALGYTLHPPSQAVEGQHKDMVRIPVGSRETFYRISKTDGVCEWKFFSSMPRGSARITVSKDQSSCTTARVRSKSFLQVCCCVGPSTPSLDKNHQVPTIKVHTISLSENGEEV
T2 sequence (P25100 whole entry): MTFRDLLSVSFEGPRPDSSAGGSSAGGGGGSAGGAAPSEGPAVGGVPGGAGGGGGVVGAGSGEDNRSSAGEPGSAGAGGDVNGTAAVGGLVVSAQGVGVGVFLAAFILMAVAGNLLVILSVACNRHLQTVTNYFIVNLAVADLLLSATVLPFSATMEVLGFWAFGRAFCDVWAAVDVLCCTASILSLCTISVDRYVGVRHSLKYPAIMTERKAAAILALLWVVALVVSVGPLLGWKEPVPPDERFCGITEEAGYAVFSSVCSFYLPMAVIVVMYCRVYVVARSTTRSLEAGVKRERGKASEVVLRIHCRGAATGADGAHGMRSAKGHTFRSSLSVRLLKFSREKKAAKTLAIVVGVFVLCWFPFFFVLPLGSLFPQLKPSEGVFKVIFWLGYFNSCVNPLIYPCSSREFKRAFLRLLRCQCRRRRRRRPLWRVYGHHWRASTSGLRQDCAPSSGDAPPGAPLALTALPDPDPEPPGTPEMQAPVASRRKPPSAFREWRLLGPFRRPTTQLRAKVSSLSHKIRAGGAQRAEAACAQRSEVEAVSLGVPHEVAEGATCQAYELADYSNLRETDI
T2 sequence (P35368 whole entry): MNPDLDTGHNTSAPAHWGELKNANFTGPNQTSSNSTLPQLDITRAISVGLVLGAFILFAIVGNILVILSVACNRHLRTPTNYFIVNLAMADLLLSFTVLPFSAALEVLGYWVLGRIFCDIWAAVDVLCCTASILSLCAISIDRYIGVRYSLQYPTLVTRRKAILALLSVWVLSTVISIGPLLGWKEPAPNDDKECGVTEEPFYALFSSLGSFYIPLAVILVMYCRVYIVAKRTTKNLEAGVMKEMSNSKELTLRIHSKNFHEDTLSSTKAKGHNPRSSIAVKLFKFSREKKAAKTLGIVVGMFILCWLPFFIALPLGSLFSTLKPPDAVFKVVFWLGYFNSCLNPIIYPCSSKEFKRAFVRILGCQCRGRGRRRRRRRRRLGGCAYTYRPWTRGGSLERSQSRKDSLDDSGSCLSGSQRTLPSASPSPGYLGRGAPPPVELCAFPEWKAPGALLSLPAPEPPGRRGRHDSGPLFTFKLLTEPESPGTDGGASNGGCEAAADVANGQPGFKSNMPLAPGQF

[4] = molecular target: T1, D(2) dopamine receptor; assay: Displacement of [3H]spiperone form human dopamine D2 receptor by liquid scintillation counting

T1 sequence (P14416 whole entry): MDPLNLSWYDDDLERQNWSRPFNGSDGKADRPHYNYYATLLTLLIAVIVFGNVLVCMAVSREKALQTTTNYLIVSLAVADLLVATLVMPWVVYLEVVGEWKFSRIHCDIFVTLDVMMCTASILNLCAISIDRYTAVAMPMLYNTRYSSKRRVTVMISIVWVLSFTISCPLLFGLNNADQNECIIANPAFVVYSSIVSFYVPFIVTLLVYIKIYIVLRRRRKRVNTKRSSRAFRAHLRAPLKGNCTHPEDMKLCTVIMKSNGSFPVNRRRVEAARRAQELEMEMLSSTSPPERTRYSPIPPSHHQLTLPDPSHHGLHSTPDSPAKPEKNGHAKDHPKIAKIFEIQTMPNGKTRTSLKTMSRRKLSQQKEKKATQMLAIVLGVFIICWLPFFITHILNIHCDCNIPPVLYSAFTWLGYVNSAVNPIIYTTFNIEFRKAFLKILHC
Chain of Sodium-dependent serotonin transporter (P31645 whole entry): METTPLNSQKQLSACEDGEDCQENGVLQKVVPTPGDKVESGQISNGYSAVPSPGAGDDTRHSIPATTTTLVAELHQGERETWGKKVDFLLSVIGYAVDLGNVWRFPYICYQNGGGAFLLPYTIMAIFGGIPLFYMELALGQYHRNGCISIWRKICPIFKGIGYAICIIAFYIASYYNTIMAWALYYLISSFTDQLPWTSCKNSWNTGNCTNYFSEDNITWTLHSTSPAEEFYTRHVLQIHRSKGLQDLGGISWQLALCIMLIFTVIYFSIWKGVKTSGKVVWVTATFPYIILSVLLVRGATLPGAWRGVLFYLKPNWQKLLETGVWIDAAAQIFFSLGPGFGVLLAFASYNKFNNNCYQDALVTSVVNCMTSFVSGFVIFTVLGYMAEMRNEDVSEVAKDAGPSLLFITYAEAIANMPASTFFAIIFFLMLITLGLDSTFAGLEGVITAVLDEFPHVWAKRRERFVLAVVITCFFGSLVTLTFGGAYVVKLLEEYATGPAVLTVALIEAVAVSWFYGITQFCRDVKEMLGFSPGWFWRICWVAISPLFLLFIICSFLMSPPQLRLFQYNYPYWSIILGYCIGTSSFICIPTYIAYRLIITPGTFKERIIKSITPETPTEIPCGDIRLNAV

| Ki [1] [nM] | Ratio [2] | Ki [3] [nM] | Ki [4] [nM] | Compound |
| --- | --- | --- | --- | --- |
| 19 | < 0.1 | – | 9 | CS(=O)(=O)Nc1cccc(OCCN2CCC(Cc3ccc4c(c3)NC(=O)CC4)CC2)c1 |
| 1.7 | 0.25 | > 3300 | 11 | CS(=O)(=O)Nc1cccc(OCCN2CC3CCC(C2)C3Cc2ccc3c(c2)NC(=O)CC3)c1 (centres undefined) |
| 22 | 0.21 | 91 | 18 | CS(=O)(=O)Nc1cccc(OCCN2CCC(Oc3ccc4c(c3)NC(=O)CC4)CC2)c1 |
| 30 | < 0.1 | 354 | 9 | CS(=O)(=O)Nc1cc(OCCN2CCC(Oc3ccc4c(c3)NC(=O)CC4)CC2)ccc1F |
| 5 | 0.85 | 1100 | 7 | CS(=O)(=O)Nc1cc(OCCN2CC3CCC(C2)C3Cc2ccc3c(c2)NC(=O)CC3)ccc1F (centres undefined) |
| 20 | < 0.1 | – | 19 | CS(=O)(=O)Nc1cc(OCCN2CCC(Cc3ccc4c(c3)NC(=O)CC4)CC2)ccc1F |

More lines, now with the values behind:

| Compound | Ki [1] [nM] | Ratio [2] | Ki [3] [nM] | Ki [4] [nM] |
| --- | --- | --- | --- | --- |
| O=C1CCc2ccc(CC3C4CCC3CN(C[C@@H]3COc5c(ccc6c5CC(=O)N6)O3)C4)cc2N1 (some centres undefined) | 1.5 | 0.4 | 46 | 6.3 |
| O=C1CCc2ccc(CC3CCN(C[C@@H]4COc5c(ccc6c5CC(=O)N6)O4)CC3)cc2N1 | 1.9 | 0.38 | 2 | 8 |
| O=C1CCc2ccc(OC3CCN(C[C@@H]4COc5c(ccc6c5CC(=O)N6)O4)CC3)cc2N1 | 20 | 0.41 | 2 | 2.5 |
| O=C1CCc2ccc(OCCN3CCN(c4cccc5[nH]c(=O)oc45)CC3)cc2N1 | 538 | – | – | 8.6 |
| O=C1CCc2ccc(OCCCN3CCN(c4cccc5[nH]c(=O)oc45)CC3)cc2N1 | 93 | – | – | 8.6 |
| O=C1CCc2ccc(OCCCCN3CCN(c4cccc5[nH]c(=O)oc45)CC3)cc2N1 | 94 | – | – | 8.3 |
| O=C1CCc2ccc(CC3CC4CCC(C3)N4C[C@@H]3COc4c(ccc5c4CC(=O)N5)O3)cc2N1 (some centres undefined) | 0.26 | < 0.1 | 8 | 16 |
